Structures can show the parent of a compound that is named as a salt.
How the values were obtained:
PGE2 = assay: LPS-induced inflammation in the rat air-pouch model (PGE2 in pouch exudates by ELISA); format: in vivo, rats; conditions: two hours after administration of LPS (FIG. 3)
Text: LPS-induced inflammation in the rat air-pouch model is believed to mimic the pathological process occurring in joint diseases such as arthritis. This is because the connective tissues formed along the air pouch are similar to those found in chronic joint diseases. LPS-induced inflammation and chronic joint diseases share other features, including markedly elevated PGE2, neutrophil infiltration, cytokine formation, and tissue damage. An air cavity was produced at day −6 by subcutaneous injection of 20 ml of sterile air into the intrascapular area of the back of male Lewis rats (175-200 g). An additional 10 ml of air was injected into the cavity at day −3 to keep the space open. At day 0, Compound I was administered intravenously and one hour later lipopolysaccharide (LPS: 2.5 ml, 2 μg/ml in PBS) was injected into the pouch to produce an inflammatory reaction. Two hours after treatment with LPS, animals were euthanized by CO2 asphyxiation and 5 ml of PBS/heparin (10 U/ml)/indomethacin (36 μg/ml) was injected into the pouch. The pouch fluid was collected and PGE2 was determined in the pouch exudates by ELISA.

[1] = tested on: doxorubicin-induced nephrotoxicity model; assay: Doxorubicin-induced nephrotoxicity model (serum albumin, serum creatinine, kidney histology); format: in vivo, mice
Experimental: C57BI/6 mice (6-10 week-old) were treated with Compound I prophylacticly from day −3 to day 10 or treated therapeutically from day 1 to 10. Nephrotoxicity was induced by an intravenous injection of 10 mg/kg of doxorubicin at day 0. Serum albumin and creatinine were monitored at days 4, 7, 9 and 11.

[2] = tested on: RAW264.7 (macrophage-like) cells; assay: Nitric oxide production in LPS/interferon-stimulated RAW264.7 cells (Griess reagent); format: cell-based; conditions: 1 μg/ml LPS and 0.5 ng/ml interferon, 16 hours, dose dependent
Experimental: The effect of Compound I on NO production was undertaken in RAW264.7 (macrophage-like) cells. RAW264.7 cells were cultured with 1 μg/ml of LPS and 0.5 ng/ml of interferon in presence or absence of the compound for 16 hours in a humidified atmosphere of 95% air-5% carbon dioxide at 37° C. Nitric oxide measurement in the culture medium was measured using the Griess reagent after an incubation of 30 minutes at room temperature. The absorbance at 548 nm was read and compared with standard solutions of NaNO2. Cell viability was assessed with the addition of 50 μl of […]. After an incubation of 4 hours, the medium was removed and 150 μl of DMSO was added to dissolve the crystals. The optical density of each sample was read at 570 nm against a blank prepared from cell-free wells.

[3] = tested on: ⅚ nephrectomized (Nx) rat model; assay: Kidney protection in ⅚ nephrectomized rat model (GFR, creatinine clearance); format: in vivo; conditions: Nx rats over treatment period; 50% deterioration in Nx control rats (FIG. 5)
Text: Male 6 week-old Wistar rats were subjected to ⅚ nephrectomy or sham operations. Under fluothane anesthesia, renal ablation was achieved by removing two-thirds of the left kidney followed by a right unilateral nephrectomy 7 days later. Sham rats underwent exposition of the kidneys and removal of the perirenal fat. Twenty-one days after the first operation, rats were randomized in the study by their reduced glomerular filtration rate (GFR) of creatinine indicating a dysfunction of the kidney. Animals that underwent the sham operation were given vehicle (saline) and were used as controls. Nx animals were divided in groups receiving the vehicle or Compound I. Saline or Compound I was given by gastric gavage once daily up to the sacrifice. GFR was measured every three weeks in order to assess the severity of this end-stage renal disease model. Rats were sacrificed at day 190.

[4] = Physical properties of the salt and the free acid (hygroscopicity, water solubility); format: physicochemical

SMILES: COc1ccc2c(c1)c(CC(=O)O)c(C)n2C(=O)c1ccc(Cl)cc1 [indomethacin]
- inhibition of PGE2 (PGE2): inhibition

SMILES: COc1cccc2c1C(=O)c1c(O)c3c(c(O)c1C2=O)C[C@@](O)(C(=O)CO)C[C@@H]3O[C@H]1C[C@H](N)[C@H](O)[C@H](C)O1 [Doxorubicin, doxorubicin, reference compound]
- kidney lesions induced by doxorubicin alone (histological score) ([1]; doxorubicin 10 mg/kg i.v. day 0, mice, day 7 and 11): significant kidney lesions

SMILES: CCCCCc1cccc(CC(=O)O)c1 [Compound I, sodium salt of 3-pentylphenylacetic acid]
- inhibition of NO production [2]: about 50%
- improvement of GFR compared to the initial GFR (before treatment) at day 21 [3]: 50%
- kidney lesions at the tubular level induced by doxorubicin (histological score) ([1]; prophylactic (pre-doxorubicin) and therapeutic (post-doxorubicin) treatments, mice (FIG. 9)): reduce the kidney lesions
- protection of kidney against doxorubicin toxicity (histological micrographs) ([1]; prophylactic or therapeutic treatment, mice (FIG. 10)): protects kidney against doxorubicin toxicity
- decrease of serum albumin induced by doxorubicin ([1]; prophylactic treatment day −3 to day 10, oral, mice (FIG. 7)): inhibits
- increase of serum creatinine induced by doxorubicin ([1]; prophylactic treatment day −3 to day 10, oral, mice (FIG. 8)): inhibits
- increase of serum creatinine level induced by doxorubicin ([1]; therapeutic treatment day 1 to 10, oral, mice (FIG. 8)): inhibits
- hygroscopicity [4]: not hygroscopic
- water solubility [4]: very water soluble

Source: patent US8637574B2, “Salts of 3-pentylphenylacetic acid and pharmaceutical uses thereof” (priority 2009, dated 2014)
